Biological target: T1, Dual specificity mitogen-activated protein kinase kinase 3 (Homo sapiens, UniProt P46734)
T1 sequence (P46734 whole entry): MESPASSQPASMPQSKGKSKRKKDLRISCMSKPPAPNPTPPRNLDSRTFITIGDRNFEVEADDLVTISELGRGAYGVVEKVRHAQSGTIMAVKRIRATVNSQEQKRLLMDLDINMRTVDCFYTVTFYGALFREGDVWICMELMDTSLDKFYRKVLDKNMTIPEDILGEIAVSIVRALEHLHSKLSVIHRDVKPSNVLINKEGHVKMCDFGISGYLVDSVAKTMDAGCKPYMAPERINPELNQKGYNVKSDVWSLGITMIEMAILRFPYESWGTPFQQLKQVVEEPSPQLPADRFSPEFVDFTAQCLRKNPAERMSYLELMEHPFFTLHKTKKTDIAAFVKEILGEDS
Assay: Binding affinity to CM5 chip immobilized human MKK3 (20 to 347 residues) expressed in Escherichia coli BL21 (DE3) assessed as dissociation constant, Kd by surface plasmon resonance analysis

koff: 0.00361 s⁻¹
Compound: COc1ccc([C@H]2CC(=O)c3cc(OC)cc(OC)c32)cc1

From BindingDB's records for PubMed 35442672 (Fudan University, 2022)
